The target in one assay is CDK2/cyclin E (Homo sapiens, UniProt P24941). As to the kind of experiment: Assay of kinase activity (ADP-Glo). Type of assay: biochemical. The conditions noted are these: kinase inhibitory activity, read-out: CDK2/E1 IC50. The procedure:
(§1) CDK/cyclin catalyzes the phosphorylation of a substrate, which concomitantly consumes ATP and produces ADP. The inhibition rate (%) in the presence of a small molecule inhibitor was assessed by measuring the amount of ADP generated in the reaction. The assay compounds were thoroughly mixed by vortexing and then diluted in DMSO to 100× the assay concentration. […] A 2× kinase solution was prepared using a 1× kinase reaction buffer (50 mM Hepes, 10 mM MgCl2, 0.01% Brij35, 2 mM DTT). 2 µL of the kinase solution was transferred to the 384-well assay plate, and the plate was centrifuged at 1000 rpm for 60 seconds in a microplate centrifuge. The plate was incubated at 25 °C in a biochemical incubator for 10 minutes. A 2x mixture of substrate and ATP was prepared in the kinase reaction buffer. Then, 2 µL of the mixture of substrate and ATP was added to the 384-well assay plate. The plate was centrifuged at 1000 rpm for 60 seconds in a microplate centrifuge, and incubated at 25 °C in a biochemical incubator for 60 minutes. 4 µL of ADP-Glo Reagent (Cat. No. V9103, manufacturer: Promega) incubated at 25 °C in a biochemical incubator was added to each well of the 384-well assay plate. The plate was centrifuged at 1000 rpm for 60 seconds in a microplate centrifuge, and incubated at 25 °C in a biochemical incubator for 40 minutes. 8 µL of Detection Reagent incubated at 25 °C in a biochemical incubator was added to each well of the 384-well assay plate. The plate was centrifuged at 1000 rpm for 60 seconds in a microplate centrifuge, and incubated at 25 °C in a biochemical incubator for 40 minutes. Finally, luminescence signals were read using a multifunctional microplate reader (model: PHERAstar FSX, manufacturer: BMG). IC50 values were calculated by nonlinear fitting of the concentration-response curves using GraphPad Prism software.
On the technique in general: ADP-Glo first removes unused ATP, then detects ADP through luciferase.

The target of a further assay is CDK4/cyclin D1 (Homo sapiens, UniProt P11802). As to the kind of experiment: Assay of kinase activity (ADP-Glo). Type of assay: biochemical. To be noted: kinase inhibitory activity. As to the method: as §1
In another assay the target is CDK6/cyclin D3 (Homo sapiens, UniProt Q00534). As to the kind of experiment: Assay of kinase activity (ADP-Glo). Type of assay: biochemical. The conditions noted are these: kinase inhibitory activity. As to the method:
(§2) CDK/cyclin catalyzes the phosphorylation of a substrate, which concomitantly consumes ATP and produces ADP. The inhibition rate (%) in the presence of a small molecule inhibitor was assessed by measuring the amount of ADP generated in the reaction. The assay compounds were thoroughly mixed by vortexing and then diluted in DMSO to 100× the assay concentration. 40 nL of a compound was transferred to a 384-well assay plate using a nanoliter pipetting system (ECHO® 655 SYSTEM). A 2× kinase solution was prepared using a 1× kinase reaction buffer (50 mM Hepes, 10 mM MgCl2, 0.01% Brij35, 2 mM DTT). 2 µL of the kinase solution was transferred to the 384-well assay plate, and the plate was centrifuged at 1000 rpm for 60 seconds in a microplate centrifuge. The plate was incubated at 25 °C in a biochemical incubator for 10 minutes. A 2x mixture of substrate and ATP was prepared in the kinase reaction buffer. Then, 2 µL of the mixture of substrate and ATP was added to the 384-well assay plate. The plate was centrifuged at 1000 rpm for 60 seconds in a microplate centrifuge, and incubated at 25 °C in a biochemical incubator for 60 minutes. 4 µL of ADP-Glo Reagent (Cat. No. V9103, manufacturer: Promega) incubated at 25 °C in a biochemical incubator was added to each well of the 384-well assay plate. The plate was centrifuged at 1000 rpm for 60 seconds in a microplate centrifuge, and incubated at 25 °C in a biochemical incubator for 40 minutes. 8 µL of Detection Reagent incubated at 25 °C in a biochemical incubator was added to each well of the 384-well assay plate. The plate was centrifuged at 1000 rpm for 60 seconds in a microplate centrifuge, and incubated at 25 °C in a biochemical incubator for 40 minutes. Finally, luminescence signals were read using a multifunctional microplate reader (model: PHERAstar FSX, manufacturer: BMG). IC50 values were calculated by nonlinear fitting of the concentration-response curves using GraphPad Prism software.

The target of a further assay is CDK9/cyclin T1 (Homo sapiens, UniProt P50750). Nature of the assay: Assay of kinase activity (ADP-Glo). Type of assay: biochemical. To be noted: kinase inhibitory activity. As to the method:
as §2

The subject of assay [1] is human acute myeloid leukemia MV-4-11 cells. Nature of the assay: Assay of cell proliferation (CellTiter-Glo). Type of assay: cell-based. To be noted: MV4-11, 144 h, 6 days, read-out: MV-4-11 IC50 of cell proliferation inhibitory activity. The procedure: (§3) Human ovarian cancer OVCAR3 cells were inoculated at 2000 cells/well in a 96-well plate and cultured in RPMI 1640 medium containing 20% FBS at 37 °C and 5% CO2 overnight in an incubator. The next day, the compounds were subjected to a three-fold gradient dilution in DMSO from a peak concentration of 2 mM to give nine concentrations. Then, the compounds were diluted 3:200 in growth medium, and finally diluted 1:3 in the cell culture supernatant to give a culture supernatant containing 0.5% DMSO, with the compounds treatment concentrations ranging from 10 µM to 0.1 nM. The cells and the compounds were incubated at 37 °C and 5% CO2 for 6 days. Then, cell proliferation assay was performed using the CellTiter-Glo (manufacturer: Promega, Cat. No. G9242), and luminescence signals were read using a multifunctional microplate reader (model: Synergy H1, manufacturer: BiotTek). IC50 values were calculated by fitting of the concentration-response curves with a four-parameter analysis method using GraphPad Prism software.
(§4) The cell proliferation assays of human colon cancer HCT-116 cells, human breast cancer MCF-7 cells, human breast cancer HCC1806 cells, human acute myeloid leukemia MV-4-11 cells, and human gastric cancer MKN1 cells were performed according to the same method, with different inoculation densities set according to different cell growth characteristics.

Assay [2] deals with human breast cancer HCC1806 cells. As to the kind of experiment: Assay of cell proliferation (CellTiter-Glo). The conditions noted are these: Homo sapiens, 144 h, 6 days, read-out: HCC1806 IC50 of cell proliferation inhibitory activity. Type of assay: cell-based. The procedure:
as §3, §4
(In general: ATP-based viability assays read luminescence as a measure of living cells.)

Assay [3] has as its system human gastric cancer MKN1 cells. As to the kind of experiment: Assay of cell proliferation (CellTiter-Glo). Type of assay: cell-based. To be noted: Homo sapiens, MKN-1, 144 h; MNK1, 6 days; read-out: MKN1 IC50 of cell proliferation inhibitory activity. As to the method:
as §3, §4

Assay [4] concerns Human ovarian cancer OVCAR3 cells. As to the kind of experiment: Assay of cell proliferation (CellTiter-Glo). The conditions noted are these: Homo sapiens, OVCAR-3, 144 h, 6 days, read-out: OVCAR3 IC50 of cell proliferation inhibitory activity. The format is cell-based. As to the method:
as §3

In patent publication EP4711369A1, “1H-[1,2,3]TRIAZOLO[4,5-H]QUINAZOLINE COMPOUNDS AS PROTEIN KINASE INHIBITORS” (Chengdu Cynogen Bio-Pharmaceutical Technology Co., Ltd., priority 2023, dated 2024) one finds IC50 data, which are given here for 10 compounds.

CDK4/cyclin D1, sequence (P11802 whole entry, species assumed): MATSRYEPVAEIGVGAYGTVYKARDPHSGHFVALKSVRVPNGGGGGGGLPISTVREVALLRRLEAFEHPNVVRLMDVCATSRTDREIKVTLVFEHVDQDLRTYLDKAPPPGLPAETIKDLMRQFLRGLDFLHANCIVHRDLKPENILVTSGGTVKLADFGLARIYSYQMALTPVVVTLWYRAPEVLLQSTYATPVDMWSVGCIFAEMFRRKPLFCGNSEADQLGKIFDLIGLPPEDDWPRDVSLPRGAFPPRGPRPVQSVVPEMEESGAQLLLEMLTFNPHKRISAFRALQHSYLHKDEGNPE
CDK4/cyclin D1, sequence (P24385 whole entry partner, species assumed): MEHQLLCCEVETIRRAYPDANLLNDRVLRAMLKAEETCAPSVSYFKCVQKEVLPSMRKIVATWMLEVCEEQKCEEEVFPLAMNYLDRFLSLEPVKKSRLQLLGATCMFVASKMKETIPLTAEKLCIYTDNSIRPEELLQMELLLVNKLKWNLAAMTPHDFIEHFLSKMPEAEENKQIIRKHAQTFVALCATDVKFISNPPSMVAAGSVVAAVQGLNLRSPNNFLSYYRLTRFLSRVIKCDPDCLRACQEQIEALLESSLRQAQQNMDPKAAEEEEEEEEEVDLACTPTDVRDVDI
CDK6/cyclin D3, sequence (Q00534 whole entry, species assumed): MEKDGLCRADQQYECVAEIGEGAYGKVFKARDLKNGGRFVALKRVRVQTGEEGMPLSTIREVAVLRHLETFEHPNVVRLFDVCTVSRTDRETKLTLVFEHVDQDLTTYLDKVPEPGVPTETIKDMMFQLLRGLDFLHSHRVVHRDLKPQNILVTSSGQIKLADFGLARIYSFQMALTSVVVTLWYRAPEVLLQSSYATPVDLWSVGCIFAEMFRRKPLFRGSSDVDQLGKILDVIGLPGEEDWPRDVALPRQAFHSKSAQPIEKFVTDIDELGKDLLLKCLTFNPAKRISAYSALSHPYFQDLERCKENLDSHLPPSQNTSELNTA
CDK6/cyclin D3, sequence (P30281 whole entry partner, species assumed): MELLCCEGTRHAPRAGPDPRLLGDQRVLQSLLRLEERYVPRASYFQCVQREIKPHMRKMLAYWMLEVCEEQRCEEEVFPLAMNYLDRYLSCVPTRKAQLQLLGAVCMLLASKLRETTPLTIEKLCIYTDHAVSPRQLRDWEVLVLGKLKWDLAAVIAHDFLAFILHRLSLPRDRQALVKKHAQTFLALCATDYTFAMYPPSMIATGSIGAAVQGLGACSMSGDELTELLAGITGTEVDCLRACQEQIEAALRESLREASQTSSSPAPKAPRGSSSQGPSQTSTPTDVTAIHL
CDK9/cyclin T1, sequence (P50750 whole entry, species assumed): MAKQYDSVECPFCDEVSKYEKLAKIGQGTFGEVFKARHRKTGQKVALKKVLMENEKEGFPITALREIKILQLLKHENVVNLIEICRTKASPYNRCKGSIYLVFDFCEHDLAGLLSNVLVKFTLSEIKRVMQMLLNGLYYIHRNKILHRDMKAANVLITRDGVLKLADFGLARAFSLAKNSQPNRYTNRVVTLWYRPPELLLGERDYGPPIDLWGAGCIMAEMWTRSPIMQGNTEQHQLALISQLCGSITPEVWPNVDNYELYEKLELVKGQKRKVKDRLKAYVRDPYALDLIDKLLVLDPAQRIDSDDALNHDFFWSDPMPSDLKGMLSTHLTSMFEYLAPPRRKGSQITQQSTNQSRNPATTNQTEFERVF
CDK9/cyclin T1, sequence (O60563 whole entry partner, species assumed): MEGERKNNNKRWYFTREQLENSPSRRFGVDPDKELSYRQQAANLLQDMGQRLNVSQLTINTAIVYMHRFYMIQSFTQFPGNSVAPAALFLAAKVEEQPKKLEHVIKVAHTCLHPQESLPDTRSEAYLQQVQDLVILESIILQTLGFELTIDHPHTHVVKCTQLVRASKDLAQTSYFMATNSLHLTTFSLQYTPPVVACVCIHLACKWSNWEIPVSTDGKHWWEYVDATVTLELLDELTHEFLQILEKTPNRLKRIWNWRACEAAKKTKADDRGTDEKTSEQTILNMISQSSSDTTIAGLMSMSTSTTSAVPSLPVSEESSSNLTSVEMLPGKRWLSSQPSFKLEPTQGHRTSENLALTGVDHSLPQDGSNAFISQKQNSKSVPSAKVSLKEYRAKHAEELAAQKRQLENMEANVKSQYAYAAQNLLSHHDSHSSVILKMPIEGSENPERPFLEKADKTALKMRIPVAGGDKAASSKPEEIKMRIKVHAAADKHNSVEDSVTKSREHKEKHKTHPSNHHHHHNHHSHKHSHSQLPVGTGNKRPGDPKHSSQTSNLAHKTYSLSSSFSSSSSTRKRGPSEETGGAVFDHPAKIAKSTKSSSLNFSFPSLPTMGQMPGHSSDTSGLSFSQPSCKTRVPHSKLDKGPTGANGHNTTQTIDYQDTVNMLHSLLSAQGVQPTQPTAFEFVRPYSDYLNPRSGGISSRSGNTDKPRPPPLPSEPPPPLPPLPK

As for `CC(C)n1nnc2ccc3cnc(Nc4ccc(C(=O)N5CC[C@H](F)C5)cc4)nc3c21` [Example I-1, (S)-(3-Fluoropyrrolidin-1-yl)(4-((1-isopropyl-1H-[1,2,3]triazolo[4,5-H]quinazolin-8-yl)amino)phenyl)methanone], the IC50 on CDK2/cyclin E came out at 0.2 nM; against CDK4/cyclin D1 it was 2 nM; against CDK6/cyclin D3, 13 nM; against CDK9/cyclin T1, 9 nM; in assay [1], 17 nM; in assay [2] it was 223 nM. Moreover, the IC50 in assay [3] is 45 nM; in assay [4], 119 nM.

Regarding `C[C@@]1(O)CCC[C@H]1n1nnc2ccc3cnc(Nc4ccc(C(=O)N5CCNCC5)cc4)nc3c21` [Example I-65], the IC50 on CDK2/cyclin E is 0.6 nM; against CDK4/cyclin D1, 0.6 nM; against CDK6/cyclin D3, 3 nM; at CDK9/cyclin T1 it was 3 nM; in assay [1] it was 5 nM; in assay [2], 111 nM. Besides, the figures for the IC50 in assay [3] and in assay [4] were 8 nM and 35 nM, respectively.

Regarding `CC(C)N[C@H]1CCN(C(=O)c2ccc(Nc3ncc4ccc5nnn([C@H](C)C(C)(C)O)c5c4n3)cc2)C1` [Example I-55, (4-((1-((R)-3-hydroxy-3-methylbutan-2-yl)-1H-[1,2,3]triazolo[4,5-H]quinazolin-8-yl)amino)phenyl)((S)-3-(isopropylamino)pyrrolidin-1-yl)methanone], the IC50 on CDK2/cyclin E stood at 0.7 nM; against CDK4/cyclin D1, 2 nM; at CDK6/cyclin D3, 18 nM; at CDK9/cyclin T1, 6 nM; in assay [1], 5 nM; in assay [2] it was 80 nM. Moreover, the figures for the IC50 in assay [3] and in assay [4] were 15 nM and 31 nM, respectively.

As to `CN1CCN(C(=O)c2ccc(Nc3ncc4ccc5nnn([C@@H]6CCC[C@@]6(C)O)c5c4n3)cc2)CC1` [Example I-66, (4-((1-((1R,2R)-2-Hydroxy-2-methylcyclopentyl)-1H-[1,2,3]triazolo[4,5-H]quinazolin-8-yl)amino)phenyl)(4-methylpiperazin-1-yl)methanone], the IC50 at CDK2/cyclin E came to 0.8 nM; on CDK4/cyclin D1, 1 nM; against CDK6/cyclin D3, 15 nM; on CDK9/cyclin T1 it was 6 nM; in assay [1], 2 nM; in assay [2], 93 nM. For the same compound, the IC50 in assay [3] was found to be 8 nM; in assay [4], 17 nM.

With `CC(C)n1nnc2ccc3cnc(Nc4ccc(C(=O)N5CCS(=O)(=O)CC5)cc4)nc3c21` [Example I-32, (1,1-Dioxothiomorpholino)(4-((1-isopropyl-1H-[1,2,3]triazolo[4,5-H]quinazolin-8-yl)amino)phenyl)metha none], the IC50 at CDK2/cyclin E was 3 nM; against CDK4/cyclin D1, 15 nM; against CDK6/cyclin D3, 230 nM; on CDK9/cyclin T1, 315 nM; in assay [1] it was 9 nM; in assay [2], 167 nM. For the same compound, the IC50 was found to be 44 nM in assay [3] and 80 nM in assay [4].

On to `CC(C)n1nnc2ccc3cnc(Nc4ccc(C(=O)N5CCN(C)[C@H](C)C5)cc4)nc3c21` [Example I-27, (R)-(3,4-Dimethylpiperazin-1-yl)(4-((1-isopropyl-1H-[1,2,3]triazolo[4,5-H]quinazolin-8-yl)amino)phenyl)metha none], for which the IC50 at CDK2/cyclin E worked out at 2 nM; against CDK4/cyclin D1, 5 nM; on CDK6/cyclin D3, 14 nM; in assay [1], 6 nM; in assay [2], 186 nM; in assay [3] it was 32 nM. Also, in assay [4], the IC50 is 69 nM.

For `CC[C@H](Nc1nc(NCc2cnc(C)cc2C)c2ncn(C(C)C)c2n1)[C@@H](C)O` [CYC-065 (Fadraciclib), reference compound], the IC50 at CDK2/cyclin E is 3 nM; at CDK4/cyclin D1 it was 228 nM; at CDK6/cyclin D3 it was more than 1000 nM; in assay [1], 171 nM; in assay [2] it was 623 nM; in assay [3] it was 209 nM. In addition, the IC50 in assay [4] turned out to be 349 nM.

On to `CC(C)n1nnc2ccc3cnc(Nc4ccc(C(=O)N5CCN(C)[C@@H](C)C5)cc4)nc3c21` [Example I-28, (S)-(3,4-Dimethylpiperazin-1-yl)(4-((1-isopropyl-1H-[1,2,3]triazolo[4,5-H]quinazolin-8-yl)amino)phenyl)metha none], for which the IC50 at CDK2/cyclin E turned out to be 2 nM; against CDK4/cyclin D1, 2 nM; at CDK6/cyclin D3, 18 nM; in assay [1], 9 nM; in assay [2], 174 nM; in assay [3] it was 42 nM. Further, the IC50 in assay [4] was 59 nM.

For `CC(C)n1nnc2ccc3cnc(Nc4ccc(C(=O)N5CC[C@@H](O)[C@H](N)C5)cc4)nc3c21` [Example I-13, ((3R,4R)-3-Amino-4-hydroxypiperidin-1-yl)(4-((1-isopropyl-1H-[1,2,3]triazolo[4,5-H]quinazolin-8-yl)amino)phenyl)metha none], the IC50 at CDK2/cyclin E was determined as 0.8 nM; on CDK4/cyclin D1, 4 nM; against CDK6/cyclin D3 it was 29 nM; in assay [1], 4 nM; in assay [2], 330 nM; in assay [3], 252 nM. The IC50 in assay [4] came out at 156 nM.

Take `CC(C)n1nnc2ccc3cnc(Nc4ccc(C(=O)N5CC[C@H](N)[C@H](O)C5)cc4)nc3c21` [Example I-14, ((3R,4S)-4-Amino-3-hydroxypiperidin-1-yl)(4-((1-isopropyl-1H-[1,2,3]triazolo[4,5-H]quinazolin-8-yl)amino)phenyl)metha none]: the IC50 is 2 nM at CDK2/cyclin E; 2 nM at CDK4/cyclin D1; 39 nM against CDK6/cyclin D3; 11 nM in assay [1]; 424 nM in assay [2]; 66 nM in assay [3]. The IC50 in assay [4] was 102 nM.
